According to patent US20260034252A1, “FIBROBLAST ACTIVATION PROTEIN-TARGETED COMPOSITIONS AND METHODS OF USE THEREOF” (Ratio Therapeutics, Inc., priority 2022, published 2026):

Tests used:
[1] = test system: U-87 (human glioblastoma) cells; assay: Detection of tumors in BALB/c nude mice transplanted with U-87 cells; type: in vivo; settings: 1 μg intravenous injection, one hour
Procedure: BALB/c nude mice were transplanted with approximately 10^7 U-87 (human glioblastoma) cells and the tumors allowed to develop. 1 μg of an ^18F-labeled FAP-targeted agent of the invention, RTX-1312S (prepared according to Example 13), was administered to the mice by intravenous injection (e.g., tail vein), which were then sacrificed after one hour. FIG. 1a illustrates tumor binding of the ^18F-labeled FAP-targeted compound in mice.

FAP = FAP (Homo sapiens (Human), UniProt Q12884); assay: FAP protease inhibition assay (FAM-labeled substrate peptide, microfluidic electrophoresis); type: biochemical; settings: enzyme 0.5 nM, substrate peptide 1 uM, 15 minutes pre-incubation, three hours for human FAP
FAP, sequence (Q12884 whole entry): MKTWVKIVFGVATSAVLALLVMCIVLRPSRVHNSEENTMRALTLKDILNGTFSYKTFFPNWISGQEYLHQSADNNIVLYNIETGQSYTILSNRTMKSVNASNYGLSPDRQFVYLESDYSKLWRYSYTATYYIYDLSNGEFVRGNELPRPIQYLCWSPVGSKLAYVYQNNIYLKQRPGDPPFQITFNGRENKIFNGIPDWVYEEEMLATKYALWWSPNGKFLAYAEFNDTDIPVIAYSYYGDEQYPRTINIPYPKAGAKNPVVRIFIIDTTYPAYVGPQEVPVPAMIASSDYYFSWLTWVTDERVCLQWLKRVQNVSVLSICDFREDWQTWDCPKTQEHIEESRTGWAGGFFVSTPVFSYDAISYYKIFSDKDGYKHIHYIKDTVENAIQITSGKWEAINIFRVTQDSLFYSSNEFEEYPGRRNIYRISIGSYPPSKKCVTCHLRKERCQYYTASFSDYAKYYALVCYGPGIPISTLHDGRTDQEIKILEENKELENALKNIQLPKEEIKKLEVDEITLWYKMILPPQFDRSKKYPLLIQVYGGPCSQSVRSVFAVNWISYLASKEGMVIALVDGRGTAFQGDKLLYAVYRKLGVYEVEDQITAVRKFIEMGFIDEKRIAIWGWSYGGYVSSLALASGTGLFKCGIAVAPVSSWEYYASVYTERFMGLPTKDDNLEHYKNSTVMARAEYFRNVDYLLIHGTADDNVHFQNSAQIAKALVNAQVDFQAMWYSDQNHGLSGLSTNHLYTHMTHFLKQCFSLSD
Procedure: Protease reactions were assembled in 384 well plates (Greiner) in a total volume of 20 uL as described below.
Recombinant proteins were pre-diluted in assay buffer comprising of 100 mM HEPES, pH 7.5, 0.1% BSA, 0.01% Triton X-100, 1 mM DTT, and dispensed into 384 well plate (10 uL per well). Test compounds were serially pre-diluted in DMSO and added to the assay wells by acoustic dispensing (Labcyte Echo 550). Control samples (0%-inhibition in the absence of inhibitor, DMSO only) and 100%-inhibition (in the absence of enzyme) were assembled in replicates of four and used to calculate the %-inhibition in the presence of compounds. Concentration of DMSO was equalized to 1% in all samples.
Compounds were pre-incubated with enzymes for 15 minutes. Human FAP was obtained from Enzo, catalogue number BML-SE409-0010. […] Final concentration of enzymes were 0.5 nM. Final concentration of substrate peptides was 1 uM.
The reactions were allowed to proceed at room temperature. Incubation time was three hours for human FAP, 0.5 hours for mouse FAP.
Terminated plates were analyzed using a microfluidic electrophoresis instrument (Caliper LabChip® 3000, Caliper Life Sciences/Perkin Elmer). A change in relative intensity of the peptide substrate and cleaved product was the parameter measured. Activity in each test sample was determined as the product to sum ratio (PSR):P/(S+P), where P is the peak height of the product, and S is the peak height of the substrate. Percent inhibition (Pinh) was determined using the following equation: Pinh=(PSR0% inh−PSRcompound)/(PSR0% inh−PSR100% inh)*100, in which: PSRcompound is the product/sum ratio in the presence of compound, PSR0% inh is the product/sum ratio in the absence of compound and the PSR100% inh is the product/sum ratio in the absence of the enzyme.

tumor binding of 18F-labeled compound [1]: tumor binding | IC50 (FAP): < 0.1 nM
Compound: CC(=O)NCCCC[C@H](NC(=O)[C@H](CCCCNC(=S)Nc1ccc(CC2CN(CC(=O)O)CCN(CC(=O)O)CCN2CC(=O)O)cc1)NC(=O)CCOCCOCCOCCNC(=O)COc1ccc2c(C(=O)NCC(=O)N3CCC[C@H]3C#N)ccnc2c1)C(=O)O (stereo partly drawn) [RTX-1312S, (S)-2-[(S)-2-(3-{2-[2-(2-{2-[4-({2-[(S)-2-Cyano-1-pyrrolidinyl]-2-oxoethylamino}carbonyl)-7-quinolyloxy]acetylamino}ethoxy)ethoxy]ethoxy}propionylamino)-6-[3-(p-{[1,4,7-tris(carboxymethyl)-1,4,7-triazonan-2-yl]methyl}phenyl)thioureido]hexanoylamino]-6-acetylaminohexanoic Acid]
